Assay results reported in ChEMBL document CHEMBL3414489, “3,4-Diaza-bicyclo[4.1.0]hept-4-en-2-one phenoxypropylamine analogs of irdabisant (CEP-26401) as potent histamine-3 receptor inverse agonists with robust wake-promoting activity” (Eur J Med Chem, 2015).
The source made the active and inactive calls. The rule behind the calls is not given here.

How the values were obtained:
[1] = Half life in iv dosed rat; type: ADME, organism-based; settings: in vivo
[2] = Half life in mouse liver microsomes; type: ADME
[3] = Half life in dog liver microsomes; type: ADME, Canis lupus familiaris
Cytochrome P450 1A2 = molecular target: T1, Cytochrome P450 1A2 (Homo sapiens, UniProt P05177); experiment: Inhibition of CYP1A2 (unknown origin); type: ADME
T1 sequence (P05177 whole entry): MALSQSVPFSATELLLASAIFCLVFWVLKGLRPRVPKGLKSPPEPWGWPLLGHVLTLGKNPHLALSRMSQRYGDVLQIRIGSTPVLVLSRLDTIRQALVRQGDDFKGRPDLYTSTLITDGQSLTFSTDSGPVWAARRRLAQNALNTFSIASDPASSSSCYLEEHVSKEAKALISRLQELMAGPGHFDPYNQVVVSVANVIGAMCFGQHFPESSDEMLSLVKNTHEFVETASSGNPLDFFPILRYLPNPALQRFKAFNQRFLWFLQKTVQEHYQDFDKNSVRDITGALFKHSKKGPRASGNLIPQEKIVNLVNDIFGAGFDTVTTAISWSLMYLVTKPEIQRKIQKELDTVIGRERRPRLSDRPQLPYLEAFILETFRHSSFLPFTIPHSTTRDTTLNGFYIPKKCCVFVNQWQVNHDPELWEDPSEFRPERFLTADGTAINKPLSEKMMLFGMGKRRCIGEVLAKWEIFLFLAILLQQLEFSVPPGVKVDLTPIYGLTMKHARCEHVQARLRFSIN

[4] = Half life in human liver microsomes; type: ADME
[5] = Half life in monkey liver microsomes; type: ADME, Macaca mulatta; settings: rhesus monkey
[6] = Half life in rat liver microsomes; type: ADME
Histamine H3 receptor [7] = molecular target: T2, Histamine H3 receptor (Homo sapiens, UniProt Q9Y5N1); experiment: Binding affinity to human histamine H3 receptor
Histamine H3 receptor [8] = molecular target: Histamine H3 receptor (Rattus norvegicus, UniProt Q9QYN8); experiment: Binding affinity to rat histamine H3 receptor
[9] = Oral bioavailability in rat; type: ADME, organism-based; settings: in vivo
[10] = Clearance in iv dosed rat; type: ADME, organism-based; settings: in vivo
Cytochrome P450 2D6 = Cytochrome P450 2D6 (Homo sapiens, UniProt P10635); experiment: Inhibition of CYP2D6 (unknown origin); type: ADME
Cytochrome P450 2C9 = Cytochrome P450 2C9 (Homo sapiens, UniProt P11712); experiment: Inhibition of CYP2C9 (unknown origin); type: ADME
Cytochrome P450 3A4 = Cytochrome P450 3A4 (Homo sapiens, UniProt P08684); experiment: Inhibition of CYP3A4 (unknown origin); type: ADME
Cytochrome P450 2C19 = Cytochrome P450 2C19 (Homo sapiens, UniProt P33261); experiment: Inhibition of CYP2C19 (unknown origin); type: ADME
Rattus norvegicus [11] = species on record: Rattus norvegicus; settings: 10 mg/kg
[12] = Plasma protein binding in dog; type: ADME, cell-free, Canis lupus familiaris; settings: read-out: PPB (converted)
Rattus norvegicus [13] = experiment: Toxicity in rat at 3 to 30 mg/kg, ip; type: organism-based; design: dose 3-30 mg/kg, route intraperitoneal; settings: in vivo
[14] = Half life in dog at 1 mg/kg, iv; type: ADME, organism-based, Canis lupus familiaris; design: dose 1 mg/kg, route intravenous; settings: in vivo
[15] = molecular target: T3, Alpha-2C adrenergic receptor (Homo sapiens, UniProt P18825); experiment: Inhibition of alpha-2C adrenergic receptor (unknown origin)
T3 sequence (P18825 whole entry): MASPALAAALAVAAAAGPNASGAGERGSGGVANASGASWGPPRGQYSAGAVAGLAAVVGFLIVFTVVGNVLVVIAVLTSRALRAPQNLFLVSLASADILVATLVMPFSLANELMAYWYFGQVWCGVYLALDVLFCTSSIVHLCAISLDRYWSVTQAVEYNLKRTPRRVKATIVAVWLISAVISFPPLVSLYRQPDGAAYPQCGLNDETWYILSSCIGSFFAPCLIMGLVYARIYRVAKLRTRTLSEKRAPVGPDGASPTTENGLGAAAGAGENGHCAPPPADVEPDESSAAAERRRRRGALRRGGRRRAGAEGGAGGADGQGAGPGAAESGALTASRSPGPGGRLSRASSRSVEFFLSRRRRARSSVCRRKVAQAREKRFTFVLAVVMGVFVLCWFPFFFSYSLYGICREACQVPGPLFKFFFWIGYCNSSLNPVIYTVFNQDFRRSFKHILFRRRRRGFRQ

[16] = AUC (0 to t) in monkey at 3 mg/kg, po; type: ADME, organism-based, Macaca mulatta; design: dose 3 mg/kg, route oral; settings: rhesus monkey, plasma
Canis familiaris [17] = experiment: Oral bioavailability in dog at 3 mg/kg; type: ADME, organism-based, Canis lupus familiaris; settings: in vivo
[18] = Aqueous solubility of the compound at pH 2; type: physicochemical
[19] = Half life in rat at 1 mg/kg, iv; type: ADME, organism-based; design: dose 1 mg/kg, route intravenous; settings: in vivo
Rattus norvegicus [20] = experiment: Wake promoting activity in rat EEG/EMG model assessed as recovery from sleep at 3 to 30 mg/kg, ip after 22 hrs relative to vehicle-treated control; type: functional, organism-based
[21] = Plasma protein binding in rat; type: ADME, cell-free; settings: read-out: PPB (converted)
Rattus norvegicus [22] = experiment: Wake promoting activity in rat EEG/EMG model assessed as AUC of cumulative wake at 30 mg/kg, ip up to 5.5 hrs relative to vehicle-treated control; type: functional, organism-based; design: dose 30 mg/kg, time < 5.5 hr
[23] = AUC (0 to t) in rat at 10 mg/kg, po; type: ADME, organism-based; design: dose 10 mg/kg, route oral; settings: plasma
[24] = Clearance in monkey at 1 mg/kg, iv; type: ADME, organism-based, Macaca mulatta; design: dose 1 mg/kg, route intravenous; settings: rhesus monkey, in vivo
Histamine H3 receptor [25] = molecular target: T2, Histamine H3 receptor; experiment: Inverse agonist activity at human H3R expressed in CHO cells assessed as inhibition of RAMH-induced [35S]GTPgammaS binding relative to control; type: functional, cell-based
[26] = Clearance in rat at 1 mg/kg, iv; type: ADME, organism-based; design: dose 1 mg/kg, route intravenous; settings: in vivo
[27] = Ratio of drug level in brain to plasma in dog at 10 mg/kg, ip after 2 hrs; type: ADME, organism-based, Canis lupus familiaris; design: dose 10 mg/kg, route intraperitoneal; settings: read-out: BPR
Canis familiaris [28] = experiment: AUC (0 to t) in dog at 3 mg/kg, po; type: ADME, organism-based, Canis lupus familiaris, Plasma; design: dose 3 mg/kg, route oral; settings: in vivo
[29] = Permeability across human Caco2 cells; type: ADME, cell-based; settings: Caco-2
Rattus norvegicus [30] = experiment: Toxicity in po dosed rat; type: organism-based; settings: in vivo
[31] = Oral bioavailability in rat at 10 mg/kg; type: ADME, organism-based; settings: in vivo
[32] = Cmax in monkey at 3 mg/kg, po; type: ADME, organism-based, Macaca mulatta; design: dose 3 mg/kg, route oral; settings: rhesus monkey, in vivo
[33] = Aqueous solubility of the compound at pH 7.4; type: physicochemical
[34] = molecular target: Sodium-dependent dopamine transporter (Homo sapiens, UniProt Q01959); experiment: Inhibition of DAT (unknown origin)
Rattus norvegicus [35] = experiment: Wake promoting activity in rat EEG/EMG model assessed as AUC of cumulative wake at 3 mg/kg, ip up to 4 hrs relative to vehicle-treated control; type: functional, organism-based; design: dose 3 mg/kg, time < 4 hr
Rattus norvegicus [36] = experiment: Wake promoting activity in rat EEG/EMG model assessed as total time awake at 30 mg/kg, ip at 6.5 hrs relative to vehicle-treated control; type: functional; settings: route intraperitoneal
[37] = Volume of distribution at steady state in dog at 1 mg/kg, iv; type: ADME, organism-based, Canis lupus familiaris; design: dose 1 mg/kg, route intravenous; settings: in vivo, read-out: Vdss
[38] = Half life in monkey at 1 mg/kg, iv; type: ADME, organism-based, Macaca mulatta; design: dose 1 mg/kg, route intravenous; settings: rhesus monkey, in vivo
Histamine H4 receptor = Histamine H4 receptor (Homo sapiens, UniProt Q9H3N8); experiment: Inhibition of human H4R
[39] = Oral bioavailability in monkey at 3 mg/kg; type: ADME, organism-based, Macaca mulatta; settings: rhesus monkey, in vivo
Rattus norvegicus [40] = experiment: Wake promoting activity in ip dosed rat EEG/EMG model; type: functional, organism-based
Histamine H1 receptor = Histamine H1 receptor (Homo sapiens, UniProt P35367); experiment: Inhibition of human H1R
[41] = Volume of distribution at steady state in rat at 1 mg/kg, iv; type: ADME, organism-based; design: dose 1 mg/kg, route intravenous; settings: in vivo, read-out: Vdss
Histamine H2 receptor = Histamine H2 receptor (Homo sapiens, UniProt P25021); experiment: Inhibition of human H2R
[42] = Ratio of drug level in brain to plasma in rat at 10 mg/kg, ip after 2 hrs; type: ADME, organism-based; design: dose 10 mg/kg, route intraperitoneal; settings: read-out: BPR
[43] = Plasma protein binding in human; type: ADME, cell-free; settings: read-out: PPB (converted)
[44] = Cmax in rat at 10 mg/kg, po; type: ADME, organism-based; design: dose 10 mg/kg, route oral; settings: in vivo
[45] = Cmax in dog at 3 mg/kg, po; type: ADME, organism-based, Canis lupus familiaris; design: dose 3 mg/kg, route oral; settings: in vivo
[46] = Volume of distribution at steady state in monkey at 1 mg/kg, iv; type: ADME, organism-based, Macaca mulatta; design: dose 1 mg/kg, route intravenous; settings: rhesus monkey, in vivo, read-out: Vdss
Rattus norvegicus [47] = species on record: Rattus norvegicus; experiment: Inhibition of RAMH-induced dipsogenia in rat; type: functional

T2 sequence (Q9Y5N1 whole entry): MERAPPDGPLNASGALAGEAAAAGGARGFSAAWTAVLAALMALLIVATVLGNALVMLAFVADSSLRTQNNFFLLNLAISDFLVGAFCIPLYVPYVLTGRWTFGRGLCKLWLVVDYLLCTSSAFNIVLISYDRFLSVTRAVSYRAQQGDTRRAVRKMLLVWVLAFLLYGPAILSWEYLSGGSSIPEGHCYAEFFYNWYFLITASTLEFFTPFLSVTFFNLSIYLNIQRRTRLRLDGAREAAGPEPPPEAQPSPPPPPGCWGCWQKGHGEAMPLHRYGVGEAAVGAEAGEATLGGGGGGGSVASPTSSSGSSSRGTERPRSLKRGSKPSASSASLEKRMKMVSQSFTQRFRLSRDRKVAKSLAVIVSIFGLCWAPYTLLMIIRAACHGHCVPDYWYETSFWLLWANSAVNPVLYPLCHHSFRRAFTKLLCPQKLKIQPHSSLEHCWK
Chain of Histamine H3 receptor (Rattus norvegicus, UniProt Q9QYN8) (Q9QYN8 whole entry): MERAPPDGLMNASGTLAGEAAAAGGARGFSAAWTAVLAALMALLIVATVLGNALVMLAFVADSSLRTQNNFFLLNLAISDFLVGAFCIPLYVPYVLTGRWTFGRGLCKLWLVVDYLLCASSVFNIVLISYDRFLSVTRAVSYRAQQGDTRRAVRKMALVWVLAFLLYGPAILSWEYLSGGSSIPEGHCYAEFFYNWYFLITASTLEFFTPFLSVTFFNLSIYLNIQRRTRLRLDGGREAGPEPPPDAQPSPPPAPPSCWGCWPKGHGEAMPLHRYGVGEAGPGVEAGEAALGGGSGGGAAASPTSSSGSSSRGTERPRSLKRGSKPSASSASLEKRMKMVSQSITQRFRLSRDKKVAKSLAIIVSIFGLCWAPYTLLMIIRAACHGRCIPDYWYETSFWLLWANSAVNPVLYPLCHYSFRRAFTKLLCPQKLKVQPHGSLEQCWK
Chain of Histamine H2 receptor (P25021 whole entry): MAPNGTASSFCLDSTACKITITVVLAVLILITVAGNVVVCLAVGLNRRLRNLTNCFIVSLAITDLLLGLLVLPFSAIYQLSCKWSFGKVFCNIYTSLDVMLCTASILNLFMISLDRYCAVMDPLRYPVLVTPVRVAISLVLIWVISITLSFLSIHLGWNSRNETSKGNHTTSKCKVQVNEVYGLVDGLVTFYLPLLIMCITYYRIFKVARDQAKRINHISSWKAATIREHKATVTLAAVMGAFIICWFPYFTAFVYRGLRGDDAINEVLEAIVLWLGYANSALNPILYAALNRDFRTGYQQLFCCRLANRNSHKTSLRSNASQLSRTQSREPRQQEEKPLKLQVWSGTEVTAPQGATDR
Chain of Cytochrome P450 2C19 (P33261 whole entry): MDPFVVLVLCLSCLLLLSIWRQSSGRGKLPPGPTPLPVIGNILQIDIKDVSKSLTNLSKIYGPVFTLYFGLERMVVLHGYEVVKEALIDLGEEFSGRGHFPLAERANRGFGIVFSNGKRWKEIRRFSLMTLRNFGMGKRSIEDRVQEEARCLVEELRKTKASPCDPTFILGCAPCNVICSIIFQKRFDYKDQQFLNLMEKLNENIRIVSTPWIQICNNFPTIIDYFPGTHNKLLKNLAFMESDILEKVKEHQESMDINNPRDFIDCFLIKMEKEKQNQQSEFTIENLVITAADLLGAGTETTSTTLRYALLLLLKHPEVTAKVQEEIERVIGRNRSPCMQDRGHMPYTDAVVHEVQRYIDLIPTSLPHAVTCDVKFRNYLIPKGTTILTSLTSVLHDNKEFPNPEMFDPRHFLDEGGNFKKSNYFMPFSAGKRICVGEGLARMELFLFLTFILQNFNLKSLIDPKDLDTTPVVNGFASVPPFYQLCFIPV
Chain of Cytochrome P450 2C9 (P11712 whole entry): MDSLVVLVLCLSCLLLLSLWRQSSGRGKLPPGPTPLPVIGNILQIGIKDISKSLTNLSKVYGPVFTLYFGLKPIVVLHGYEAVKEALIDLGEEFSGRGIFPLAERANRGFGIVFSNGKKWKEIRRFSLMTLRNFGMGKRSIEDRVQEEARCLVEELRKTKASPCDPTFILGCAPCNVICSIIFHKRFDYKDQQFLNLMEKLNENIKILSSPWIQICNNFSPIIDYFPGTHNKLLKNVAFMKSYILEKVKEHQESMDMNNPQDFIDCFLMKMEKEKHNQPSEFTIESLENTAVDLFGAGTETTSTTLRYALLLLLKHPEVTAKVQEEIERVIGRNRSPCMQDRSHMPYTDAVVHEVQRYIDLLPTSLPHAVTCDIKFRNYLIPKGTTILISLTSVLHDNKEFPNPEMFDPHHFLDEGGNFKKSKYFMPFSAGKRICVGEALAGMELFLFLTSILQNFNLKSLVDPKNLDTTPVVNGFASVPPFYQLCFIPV
Chain of Histamine H1 receptor (P35367 whole entry): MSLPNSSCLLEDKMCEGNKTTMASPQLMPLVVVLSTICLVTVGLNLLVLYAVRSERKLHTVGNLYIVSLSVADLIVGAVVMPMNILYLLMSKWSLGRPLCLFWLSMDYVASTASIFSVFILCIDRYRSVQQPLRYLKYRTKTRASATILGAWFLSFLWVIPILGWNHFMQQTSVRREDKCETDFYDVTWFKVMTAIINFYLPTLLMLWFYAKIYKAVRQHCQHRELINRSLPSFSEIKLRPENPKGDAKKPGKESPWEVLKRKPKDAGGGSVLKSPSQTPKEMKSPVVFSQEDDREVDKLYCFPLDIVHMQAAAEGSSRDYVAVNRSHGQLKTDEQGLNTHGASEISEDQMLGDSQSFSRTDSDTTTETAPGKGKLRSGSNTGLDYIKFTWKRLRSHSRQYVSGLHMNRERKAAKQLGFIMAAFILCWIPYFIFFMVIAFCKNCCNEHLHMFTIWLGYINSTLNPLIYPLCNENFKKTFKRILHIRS
Chain of Histamine H4 receptor (Q9H3N8 whole entry): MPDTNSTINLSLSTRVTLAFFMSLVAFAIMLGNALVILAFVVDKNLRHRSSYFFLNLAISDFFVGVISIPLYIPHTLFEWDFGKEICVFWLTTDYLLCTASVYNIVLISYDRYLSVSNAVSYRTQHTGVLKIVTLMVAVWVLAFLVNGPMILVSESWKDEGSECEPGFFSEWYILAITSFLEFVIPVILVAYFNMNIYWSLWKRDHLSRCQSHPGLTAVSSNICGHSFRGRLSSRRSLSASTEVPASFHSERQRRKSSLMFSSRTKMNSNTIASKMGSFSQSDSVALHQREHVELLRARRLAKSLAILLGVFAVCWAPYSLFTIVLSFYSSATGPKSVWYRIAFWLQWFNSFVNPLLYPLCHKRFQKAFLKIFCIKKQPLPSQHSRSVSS
Chain of Cytochrome P450 3A4 (P08684 whole entry): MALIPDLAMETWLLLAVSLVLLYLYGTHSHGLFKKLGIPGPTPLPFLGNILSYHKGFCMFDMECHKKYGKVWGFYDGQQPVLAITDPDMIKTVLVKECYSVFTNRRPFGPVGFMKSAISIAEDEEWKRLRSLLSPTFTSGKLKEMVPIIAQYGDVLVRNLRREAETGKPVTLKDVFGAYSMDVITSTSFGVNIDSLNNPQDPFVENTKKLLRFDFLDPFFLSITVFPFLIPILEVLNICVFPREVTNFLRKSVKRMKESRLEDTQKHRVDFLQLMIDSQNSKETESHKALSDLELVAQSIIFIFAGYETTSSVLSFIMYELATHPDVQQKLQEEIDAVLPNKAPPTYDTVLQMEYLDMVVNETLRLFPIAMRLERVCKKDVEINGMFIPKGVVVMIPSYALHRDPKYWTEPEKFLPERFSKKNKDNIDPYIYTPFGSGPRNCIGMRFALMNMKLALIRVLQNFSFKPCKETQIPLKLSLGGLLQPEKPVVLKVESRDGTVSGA
Chain of Cytochrome P450 2D6 (P10635 whole entry): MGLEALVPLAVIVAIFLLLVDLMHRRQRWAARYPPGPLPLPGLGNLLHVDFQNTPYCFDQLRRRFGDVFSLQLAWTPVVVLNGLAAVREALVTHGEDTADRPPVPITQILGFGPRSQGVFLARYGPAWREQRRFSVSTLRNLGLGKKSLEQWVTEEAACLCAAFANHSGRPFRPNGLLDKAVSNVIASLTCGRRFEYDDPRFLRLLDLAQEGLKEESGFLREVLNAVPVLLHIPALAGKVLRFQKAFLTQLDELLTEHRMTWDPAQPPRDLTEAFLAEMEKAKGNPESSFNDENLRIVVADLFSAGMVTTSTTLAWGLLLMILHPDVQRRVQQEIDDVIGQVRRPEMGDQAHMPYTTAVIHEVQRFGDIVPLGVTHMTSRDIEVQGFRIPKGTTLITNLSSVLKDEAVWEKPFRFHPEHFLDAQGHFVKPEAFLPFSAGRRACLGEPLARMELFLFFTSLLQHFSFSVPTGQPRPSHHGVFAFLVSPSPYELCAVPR
Chain of Sodium-dependent dopamine transporter (Q01959 whole entry): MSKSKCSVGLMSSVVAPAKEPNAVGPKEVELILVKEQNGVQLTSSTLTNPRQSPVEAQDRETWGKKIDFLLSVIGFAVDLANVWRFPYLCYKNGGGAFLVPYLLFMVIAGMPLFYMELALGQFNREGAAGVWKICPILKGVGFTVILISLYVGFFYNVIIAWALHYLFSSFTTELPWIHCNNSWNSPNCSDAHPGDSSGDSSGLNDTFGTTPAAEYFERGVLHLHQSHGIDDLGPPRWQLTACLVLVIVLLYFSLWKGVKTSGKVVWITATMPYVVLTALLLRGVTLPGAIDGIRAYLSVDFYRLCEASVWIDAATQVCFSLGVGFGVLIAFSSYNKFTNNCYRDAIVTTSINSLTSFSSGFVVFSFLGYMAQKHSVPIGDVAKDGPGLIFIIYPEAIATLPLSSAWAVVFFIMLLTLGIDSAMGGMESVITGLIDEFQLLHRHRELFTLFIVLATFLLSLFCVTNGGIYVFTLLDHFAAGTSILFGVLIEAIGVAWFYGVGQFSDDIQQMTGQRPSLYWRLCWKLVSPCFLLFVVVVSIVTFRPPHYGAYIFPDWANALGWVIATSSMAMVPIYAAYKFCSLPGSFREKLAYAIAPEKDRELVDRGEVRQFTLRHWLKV

C[C@@H]1CCCN1CCCOc1ccc(C2=NNC(=O)C3CC23)cc1 (stereo partly drawn)
half-life [1]: 84 min | half-life [2]: > 40 min | half-life [3]: > 40 min | IC50 (Cytochrome P450 1A2): > 30000 nM | half-life [4]: > 40 min | half-life [5]: > 40 min | half-life [6]: > 40 min | Ki (Histamine H3 receptor [7]): 3.7 nM | Ki (Histamine H3 receptor [8]): 13 nM | bioavailability [9]: > 25% | clearance [10]: 11 mL/min/kg

C[C@H]1CCCN1CCCOc1ccc(C2=NNC(=O)C3CC23)cc1 (mixture of isomers)
Ki (Histamine H3 receptor [7]): 13 nM | Ki (Histamine H3 receptor [8]): 57 nM

C[C@H](COc1ccc(C2=NNC(=O)C3CC23)cc1)CN1CCC[C@H]1C (mixture of isomers)
half-life [1]: 108 min | IC50 (Cytochrome P450 2D6): > 30000 nM | half-life [2]: > 40 min | half-life [3]: > 40 min | IC50 (Cytochrome P450 1A2): > 30000 nM | half-life [4]: > 40 min | IC50 (Cytochrome P450 2C9): > 30000 nM | half-life [5]: > 40 min | IC50 (Cytochrome P450 3A4): > 30000 nM | IC50 (Cytochrome P450 2C19): > 30000 nM | half-life [6]: > 40 min | Ki (Histamine H3 receptor [7]): 2.3 nM | Ki (Histamine H3 receptor [8]): 9.8 nM | bioavailability [9]: > 25% | clearance [10]: 19 mL/min/kg

C[C@@H]1CCCN1CCCOc1ccc(C2=NNC(=O)[C@@H]3C[C@H]23)cc1
AUC (Rattus norvegicus [11]): 158 min | fraction unbound [12]: 0.4 | Activity (Rattus norvegicus [13]): Non-toxic | half-life [14]: 192 min | Ki [15]: 1500 nM | AUC(0-t) [16]: 9570 ng·h/mL | F (Canis familiaris [17]): 115% | solubility [18]: > 4000 µg/mL | half-life [19]: 66 min | Activity (Rattus norvegicus [20]): inactive | half-life [2]: > 40 min | fraction unbound [21]: 0.19 | AUC (Rattus norvegicus [22]): 233 min | AUC(0-t) [23]: 5760 ng·h/mL | clearance [24]: 6 mL/min/kg | EC50 (Histamine H3 receptor [25]): 0.7 nM | IC50 (Cytochrome P450 1A2): > 30000 nM | clearance [26]: 9.6 mL/min/kg | Kp at 2 h [27]: 2.1 | AUCt (Canis familiaris [28]): 4205 ng·h/mL | Papp [29]: 17.5 ×10⁻⁶ cm/s | half-life [4]: > 40 min | Activity (Rattus norvegicus [30]): Non-toxic | bioavailability [31]: 34% | half-life [5]: > 40 min | Cmax [32]: 764 ng/mL | solubility [33]: > 4000 µg/mL | half-life [6]: > 40 min | Ki (Histamine H3 receptor [7]): 3.1 nM | Ki [34]: 10200 nM | Ki (Histamine H3 receptor [8]): 9.9 nM | AUC (Rattus norvegicus [35]): 128 min | Time (Rattus norvegicus [36]): 197 min | Vd [37]: 3.7 L/kg | half-life [38]: 462 min | Ki (Histamine H4 receptor): > 10000 nM | bioavailability [39]: 136% | Activity (Rattus norvegicus [40]): Dose-dependent effect | Ki (Histamine H1 receptor): > 10000 nM | Vd [41]: 0.9 L/kg | Ki (Histamine H2 receptor): > 10000 nM | Kp at 2 h [42]: 2 | fraction unbound [43]: 0.55 | Cmax [44]: 810 ng/mL | Cmax [45]: 664 ng/mL | Vd [46]: 4 L/kg | Activity (Rattus norvegicus [47]): Dose-dependent effect | ED50 (Rattus norvegicus [47]): 0.14 mg/kg

O=C1NN=C(c2ccc(OCCCN3CCCCC3)cc2)C2CC12 (racemic)
Ki (Histamine H3 receptor [7]): 19 nM | Ki (Histamine H3 receptor [8]): 54 nM
